Assay results reported in patent publication US5594004A, “Compound with platelet aggregation inhibitor activity” (Meiji Seika Kabushiki Kaisha, priority 1993, dated 1997).
Structures can show the parent of a compound that is named as a salt.

Assays:
[1] = system: human PRP (platelet rich plasma); test: Pharmacological test 1: inhibition of ADP-induced platelet aggregation in human PRP; type: cell-based; conditions: Platelet, ADP 5 μM inducer; for inhibition at 1 µM: inhibition rate at 10^-6 M; for IC50: Homo sapiens, platelet aggregation
Experimental: Pharmacological test 1 Inhibition of platelet aggregation
The effect of the compound according to the present invention on inhibiting the platelet aggregation was examined with human PRP (platelet rich plasma).
Nine volumes of a blood sample was taken out of the vein of a normal human with a syringe in which one volume of a 3.8% sodium citrate solution was charged. The blood sample was centrifuged at 170×g at room temperature for 10 minutes. The supernatant thus obtained was isolated as PRP. The residual blood sample that PRP had been taken out was centrifuged at 2,700×g for 15 minutes. The supernatant was then taken as platelet poor plasma (PPP).
Platelet aggregation test was conducted with an aggligometer (PAM-8C; manufactured by MEBANICKS Co., Ltd.). Compounds to be tested were dissolved in a 50% DMSO saline, a 50% methanol saline or physiological saline. The compound and PRP were preincubated for 2 minutes. The ADP (CHRONO-PAR REAGENTS 384 ADP, CHRONO-LOG Corp.) was used as an inducer in the form of a dilution with saline so that the final concentration is 5 μM.
Anti-platelet aggregation activity was obtained as an inhibition rate to platelet aggregation effect of ADP in the absence of a compound to be tested as follows: [formula] Physiological test 2 Inhibition of fibrinogen bonding to platelet GPIIb/IIIa

[2] = molecular target: T1, human platelet GPIIb/IIIa (Homo sapiens, UniProt P05106+P08514); test: Pharmacological test 2: inhibition of fibrinogen bonding to platelet GPIIb/IIIa (solid phase assay, biotinylated fibrinogen); type: binding; conditions: for inhibition at 10 µM: inhibition rate at 10^-5 M; for inhibition at 0.1 µM: inhibition rate at 10^-7 M; for IC50: fibrinogen bonding to GPIIb/IIIa
T1 construct: platelets collected from healthy adults; from tissue; host or cells: platelets from healthy adults (solubilized with octylglucoside, purified on GRGDSPK-Sepharose)
Experimental: Inhibiting effect of the compound according to the present invention on the binding of platelet GPIIb/IIIa and fibrinogen was examined with a solid phase human platelet GPIIb/IIIa bonding assay using biotinylated fibrinogen as a ligand. Human platelet GPIIb/IIIa was purified according to the method described by Pytela, R. et al. (Science, 231, 1559-1561 (1986)). […] The same amount of TBS containing 50 mM octylglucoside and 2 mM PMSF was added to the pellet obtained in order to solubilize the membrane protein at 4° C. for 20 minutes. […] The solubilized protein solution was adsorbed on a GRGDSPK-Sepharose column which had been equilibrated with TBS (Buffer A) containing 50 mM Octylglucoside, 1 mM CaCl2 and MgCl2. After the column was washed with Buffer A, the adsorbed GPIIb/IIIa was eluted with Buffer A containing 2 mM GRGDSP peptide. GRGDSPK-Sepharose was prepared by coupling GRGDSPK peptide and CNBr-activated Sepharose 4B (Pharmacia) according to the instruction of the manufacturer. Then, solid phase human platelet GPIIb/IIIa bonding assay was carried out according to the method of Mori et al. […] Purified human platelet GPIIb/IIIa was adjusted in an amount of 2 μg/ml and adsorbed in an amount of 50 μl on a 96 well-microtiter plate at 4° C. overnight. After washing with TBS containing 1 mM CaCl2 and 1 mM MgCl2, 100 μl of 1% bovine serum albumin was added, blocking was conducted at 4° C. overnight. […] After washing with TBS-Tween 20, 50 μl of peroxidase labelled avidin which had been diluted with TBS to 4,000 times was added. The reaction was continued for 20 minutes. […] A 50 μl portion of a 0.1M citrate buffer containing 0.05% NaN3 was added to stop the reaction, and absorbance at 415 nm was measured. The rate of Bonding inhibition was calculated from the following formula: [formula]

T1 sequence (P08514 32-887 limits assumed): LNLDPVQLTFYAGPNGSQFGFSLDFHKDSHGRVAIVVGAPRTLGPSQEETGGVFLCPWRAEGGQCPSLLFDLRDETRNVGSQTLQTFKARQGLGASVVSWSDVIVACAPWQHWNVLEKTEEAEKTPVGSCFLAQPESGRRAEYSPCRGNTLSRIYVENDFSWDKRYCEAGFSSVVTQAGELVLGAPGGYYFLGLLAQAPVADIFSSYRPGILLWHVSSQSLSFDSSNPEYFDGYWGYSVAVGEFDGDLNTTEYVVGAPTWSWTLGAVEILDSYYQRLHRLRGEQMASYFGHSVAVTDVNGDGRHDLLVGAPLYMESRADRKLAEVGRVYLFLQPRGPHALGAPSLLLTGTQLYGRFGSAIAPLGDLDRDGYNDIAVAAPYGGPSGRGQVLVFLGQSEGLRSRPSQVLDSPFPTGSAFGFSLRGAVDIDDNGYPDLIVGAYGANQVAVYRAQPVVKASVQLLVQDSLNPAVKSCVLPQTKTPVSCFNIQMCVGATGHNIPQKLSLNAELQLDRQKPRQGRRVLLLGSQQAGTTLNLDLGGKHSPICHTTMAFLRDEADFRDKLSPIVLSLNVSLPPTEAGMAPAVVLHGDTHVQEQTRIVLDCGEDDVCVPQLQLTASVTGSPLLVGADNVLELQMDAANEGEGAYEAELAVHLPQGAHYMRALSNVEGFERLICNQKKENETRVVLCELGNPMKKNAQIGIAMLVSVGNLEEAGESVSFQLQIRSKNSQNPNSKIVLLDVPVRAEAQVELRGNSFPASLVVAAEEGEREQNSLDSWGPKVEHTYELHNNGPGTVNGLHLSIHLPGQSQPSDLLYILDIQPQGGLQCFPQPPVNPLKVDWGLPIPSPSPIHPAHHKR
T1 sequence (P08514 891-1039 limits assumed): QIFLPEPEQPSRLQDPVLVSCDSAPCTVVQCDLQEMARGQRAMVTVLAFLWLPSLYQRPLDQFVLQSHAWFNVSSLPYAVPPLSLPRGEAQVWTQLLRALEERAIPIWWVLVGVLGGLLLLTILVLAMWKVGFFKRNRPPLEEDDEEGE
T1 sequence (P05106 27-788): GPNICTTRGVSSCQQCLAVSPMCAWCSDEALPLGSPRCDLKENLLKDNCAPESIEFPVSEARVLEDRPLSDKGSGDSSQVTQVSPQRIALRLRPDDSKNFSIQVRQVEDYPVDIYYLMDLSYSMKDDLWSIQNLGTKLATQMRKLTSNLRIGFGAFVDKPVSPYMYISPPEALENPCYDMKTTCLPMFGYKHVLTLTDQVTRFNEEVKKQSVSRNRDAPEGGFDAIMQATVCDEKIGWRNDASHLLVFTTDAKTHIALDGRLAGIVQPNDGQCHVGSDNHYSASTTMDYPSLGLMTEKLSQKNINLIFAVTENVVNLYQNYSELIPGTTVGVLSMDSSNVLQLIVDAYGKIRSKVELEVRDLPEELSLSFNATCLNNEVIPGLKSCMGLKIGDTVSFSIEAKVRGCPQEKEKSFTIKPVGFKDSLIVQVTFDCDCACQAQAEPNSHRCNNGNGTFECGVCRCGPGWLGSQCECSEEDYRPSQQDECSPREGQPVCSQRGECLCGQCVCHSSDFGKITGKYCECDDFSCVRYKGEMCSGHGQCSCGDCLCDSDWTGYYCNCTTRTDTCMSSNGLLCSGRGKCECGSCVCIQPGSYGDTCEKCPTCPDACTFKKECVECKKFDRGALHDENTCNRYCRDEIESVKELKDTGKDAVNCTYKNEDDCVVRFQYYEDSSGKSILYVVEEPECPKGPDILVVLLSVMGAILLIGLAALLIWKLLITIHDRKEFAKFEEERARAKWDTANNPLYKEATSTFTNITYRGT

Row | SMILES | inhibition at 1 µM [1] | inhibition at 10 µM [2] | inhibition at 0.1 µM [2] | IC50 [1] | IC50 [2]
1 | NCC1CCC(c2ncc(-c3ccc(OCC(=O)O)c(OCC(=O)O)c3)o2)CC1 (stereo not shown) [Example 4, 2-(4-aminomethylcyclohexyl)-5-(3,4-dicarboxymethoxy)phenyloxazole] | 85% | 73% |  |  | 
2 | NC[C@H]1CC[C@H](C(=O)NCCc2ccc(OCC(=O)O)c(OCC(=O)O)c2)CC1 [Example 7, [[4-[[2-[trans-4-(aminomethyl)cyclohexyl]carbonylamino]ethyl]-o-phenylene]dioxy]diacetic acid trifluoroacetate] | 48% | 27% |  |  | 
3 | CN(CC(=O)c1ccc(OCC(=O)O)c(OCC(=O)O)c1)C(=O)CCC1CCNCC1 [Example 9, [[4-[[N-[3-(piperidin-4-yl)propionyl]-N-methylamino]acetyl]-o-phenylene]dioxy]diacetic acid trifluoroacetate] | 79% |  | 73% |  | 
4 | O=C(O)COc1ccc(C(=O)CNC(=O)CCC2CCNCC2)cc1OCC(=O)O [Example 10, [[4-[[N-[3-(piperidin-4-yl)propionyl]amino]acetyl]-o-phenylene]dioxy]diacetic acid trifluoroaceetate] | 85% |  | 82% | 0.35 µM | 
5 | O=C(O)COc1ccc(C(=O)CNC(=O)c2cc3c(s2)CCNC3)cc1OCC(=O)O [Example 18, [[4-[[[(4,5,6,7-tetrahydrothieno [3,2-c]pyridin-2-yl]carbonyl]amino]acetyl]-o-phenylene]dioxy]diacetic acid trifluoroacetate] |  |  |  | 0.14 µM | 1.7 µM
6 | CN(CC(=O)c1ccc(OCC(=O)O)c(OCC(=O)O)c1)C(=O)c1cc2c(s1)CCNC2 [Example 19, [[4-[[[(4,5,6,7-tetrahydrothieno[3,2-c]pyridin-2-yl)carbonyl]-N-methylamino]acetyl]-o-phenylene]dioxy]diacetic acid trifluoroacetate] |  |  |  | 0.55 µM | 3.6 µM
7 | O=C(O)COc1ccc(C(O)CNC(=O)c2cc3c(s2)CCNC3)nc1 (stereo not shown) [Example 21, 2-[1-hydroxy-2-[(4,5,6,7-tetrahydrothieno[3,2-c]pyridin-2-yl)carbonylamino]ethyl]pyridin-5-yloxyacetic acid trifluoroacetate] |  |  |  | 0.5 µM | 10 µM
8 | O=C(O)COc1ccc(C(=O)CNC(=O)c2cc3c(s2)CCNC3)cc1 [Example 22, 4-[[(4,5,6,7-tetrahydrothieno[3,2-c]pyridin-2-yl)carbonyl]aminoacetyl]phenoxyacetic acid trifluoroacetate] |  |  |  | 1.2 µM | > 10 µM
9 | Cc1c(C(=O)NCC(=O)c2ccc(OCC(=O)O)c(OCC(=O)O)c2)sc2c1CNCC2 [Example 27, [[4-[[[(3-methyl-4,5,6,7-tetrahydrothieno[3.2-c]pyridin-2-yl)carbonyl]amino]acetyl]-o-phenylene]dioxy]diacetic acid trifluoroacetate] |  |  |  | 2.5 µM | 9.5 µM
